Tests used:
[1] = system: U87MG tumors; experiment: U87MG human glioblastoma xenograft model (Compound 1); type: in vivo, SCID mice; conditions: for Tumor growth delay (TGD): to reach 1000 mm^3; for loss of initial body mass: end of first cycle (p<0.01)
Experimental: U87MG Human Glioblastoma Xenograft Model (Compound 1). Efficacy Studies: Groups of female SCID mice bearing U87MG tumors (n=8-10/group) were dosed orally with vehicle or Compound 1 throughout the study, starting when tumor volumes reached approximately 200 mm^3. The twice daily (BID) dose groups were dosed with a 10-hour separation between morning and evening doses. In the positive control group, rapamycin was administered Q3D via intraperitoneal (IP) route. At the end of each study, plasma and/or tumor samples were collected.
Cell Line and Culture. U87MG cell line was obtained from American Tissue Culture Collection (ATCC) (Gaithersberg, Md.) and grown in growth medium containing MEM, 2 mM L-glutamine, 0.1 mM non-essential amino acids and 1 mM sodium pyruvate and 10% fetal bovine serum (FBS). The cells were detached from tissue culture flasks using trypsin-EDTA. After centrifugation, the cell pellets were suspended in phosphate buffered saline (PBS) and counted using a hemocytometer. The final volume was adjusted to 5×10^6 cells/0.1 mL of PBS.
Tumor Cell Inoculation. Mice were anesthetized with inhaled isoflurane and then inoculated with U87MG tumor cells subcutaneously on the right hind leg with 0.1 mL of a single cell suspension in PBS using a sterile 1 mL syringe fitted with a 26 gauge needle. Following inoculation, the mice were returned to microisolator cages
Randomization of Animals. Following inoculation, tumors were allowed to grow to about 200 mm^3 prior to randomization. The typical number of days required for tumors to reach 200 mm^3 was 14-15 days. The tumor of each animal was measured and animals with tumors ranging between 175-250 mm^3 were included in the study. Animals from the pool were then distributed randomly into various cages and the cages were randomly assigned to vehicle, positive control, or test article groups. All of the mice were tagged with metal ear tags on the right ear.
Test Article Preparation and Administration. Suspensions of Compound 1 were prepared in aqueous 0.5% CMC and 0.25% Tween-80. The formulations were homogenized using a Teflon™ pestle and mortar (Potter-Elvehjem tissue grinder). Between the doses, the formulated compound was stored under constant stirring using a magnetic stirrer at 4° C. in the dark. The test article and vehicle were administered by oral gavage. The positive control, rapamycin, was prepared as solution in 2% ethanol, 45% polyethyleneglycol 400, and 53% saline and administered by IP injection. Sterile syringes and gavage needles were used for compound administration. All of the procedures including injections were done in biosafety cabinets disinfected with 70% ethanol prior to use.
Tumor Measurements. Tumor volumes were determined prior to the initiation of treatment and were considered as the starting volumes. Thereafter, tumors were measured twice a week for the duration of the study. The long and short axes of each tumor were measured using a digital caliper in millimeters. Tumor volumes were calculated using the formula: width^2×length/2. The tumor volumes were expressed in cubic millimeters (mm^3).
Tumor Growth Delay (TGD) Calculations. Tumor growth delay is the difference in days for treated versus control tumors to reach a volume of 1000 mm^3. The TGD was calculated from the data plotted in a graph format.
Body Weight Measurements. Initial body weights were recorded prior to the initiation of treatment using a digital scale. The percent body weight change during the course of the study was calculated using initial body weight measurements. Body weights of each animal were measured twice a week at the same time as the tumor measurements. Body weights were measured more frequently if significant decreases were noted during the course of the study.

[2] = Storage stability of compound-spotted plates (repeat testing in A549); type: physicochemical; conditions: DMSO-spotted sealed 384-well plates at −20° C.
Experimental: Compound 1 was dissolved in dimethyl sulfoxide (DMSO) to prepare a 10 mM stock solution. A serial titration was performed to produce a working concentration range of […] to 10 mM. Aliquots to produce final concentrations of 1.5 nM to 10 μM were spotted via an acoustic dispenser (EDC ATS-100) into an empty 384-well plate. Compound 1 was spotted in a 10-point serial dilution fashion (3-fold dilution) in duplicate within the plate. The DMSO concentration was kept constant for a final assay concentration of 0.1% DMSO. Plates were replicated for use with different cell lines and testing periods. […] When ready for testing, plates were removed from the freezer, thawed, and unsealed just prior to the addition of the test cells. […] At the time when compound was added (t0), initial cell number was assessed via a viability assay (Cell Titer-Glo) by quantifying the level of luminescence generated by ATP present in viable cells. After 96 hours, cell viability of compound-treated cells was assessed via Cell Titer-Glo and luminescence measurement. […] The compound response against this control cell line was monitored closely to enable comparison of the data generated through the assay period. […] Results were then expressed as a GI50 value. […] In addition, the IC50 value of Compound 1 for each cell line was calculated.

CO[C@H]1CC[C@H](N2C(=O)CNc3ncc(-c4ccc(C(C)(C)O)nc4)nc32)CC1 [Compound 1, 7-(6-(2-hydroxypropan-2-yl)pyridin-3-yl)-1-((1r,4r)-4-methoxycyclohexyl)-3,4-dihydropyrazino-[2,3-b]pyrazin-2(1H)-one]
average tumor volume ([1]; 5 mg/kg BID oral, Day 24 (dosing from Day 14)): 149±9 mm^3
average tumor volume ([1]; 5 mg/kg BID oral, Day 31): 208±31 mm^3
tumor volume reduction compared with vehicle control ([1]; 5 mg/kg BID oral, Day 31): 91%
change in body weight ([1]; 5 mg/kg BID, 18 days): No significant change
Tumor growth delay (TGD) ([1]; 5 mg/kg BID): 11 days
average tumor volume ([1]; 10 mg/kg BID oral, Day 24 (dosing from Day 14)): 96±4 mm^3
average tumor volume ([1]; 10 mg/kg BID oral, Day 31): 96±13 mm^3
tumor volume reduction compared with vehicle control ([1]; 10 mg/kg BID oral, Day 31): 96%
loss of initial body mass ([1]; 10 mg/kg BID): about 10%
Tumor growth delay (TGD) ([1]; 10 mg/kg BID): 20 days
average tumor volume ([1]; 25 mg/kg Q2D oral, Day 24 (dosing from Day 14)): 101±8 mm^3
average tumor volume ([1]; 25 mg/kg Q2D oral, Day 31): 116±15 mm^3
tumor volume reduction compared with vehicle control ([1]; 25 mg/kg Q2D oral, Day 31): 95%
loss of initial body mass ([1]; 25 mg/kg Q2D): about 10%
Tumor growth delay (TGD) ([1]; 25 mg/kg Q2D): 17 days
tumor regression ([1]; 5 and 10 mg/kg BID and 25 mg/kg Q2D, persisted until Day 31): showed tumor regression
lowest efficacious dose as determined by 65% tumor volume inhibition ([1]; QD oral, 3 weeks): 1 mg/kg
change in body weight ([1]; QD study, 3 weeks, any of the groups): No statistically significant change
tumor volume reduction ([1]; all dose levels tested (0.5, 1, 3, 5 mg/kg QD, 3 weeks), Day 34): Significant (p<0.001) tumor volume reduction
stable under the storage conditions [2]: at least 1 month
